{
  "source": "ChEMBL document CHEMBL1944587",
  "about": "“4-Piperidin-4-ylidenemethyl-benzamides as δ-opioid receptor agonists for CNS indications: identifying clinical candidates” (Bioorg Med Chem Lett, 2012)",
  "data": [
    {"experiment": "physchem", "conditions": "octanol/water", "values": [
      {"molecule": "O=C(c1ccc(C(=C2CCN(Cc3cscn3)CC2)c2cccc3cccnc23)cc1)N1CCCC1", "logD": 2.8},
      {"molecule": "CN(C)C(=O)c1ccc(C(=C2CCN(Cc3cscn3)CC2)c2cccc3cccnc23)cc1", "logD": 2.3},
      {"molecule": "O=C(c1ccc(C(=C2CCN(Cc3cscn3)CC2)c2cccc3cccnc23)cc1)N1CCOCC1", "logD": 2.1},
      {"molecule": "CN1CCN(C(=O)c2ccc(C(=C3CCN(Cc4cscn4)CC3)c3cccc4cccnc34)cc2)CC1", "logD": 2},
      {"molecule": "O=C(c1ccc(C(=C2CCN(Cc3cscn3)CC2)c2cccc3cccnc23)cc1)N1CCC(O)CC1", "logD": 1.9}
    ]}
  ]
}
